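A five-concentration, 48-hour dose response in 96-well plates underlies each endpoint, interpolated linearly between surrounding concentrations. The concentration for 50% growth inhibition is given as GI50. Definition used: TGI = concentration required for complete inhibition of growth.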
Legend:
Experiment in all cases: inhibition of tumour cell growth, NCI panel, 48 h
OVCAR-3 ovarian = tested on: OVCAR-3 ovarian
ACHN renal = tested on: ACHN renal
SF-268 CNS = tested on: SF-268 CNS
A498 renal = tested on: A498 renal
SK-MEL-2 melanoma = tested on: SK-MEL-2 melanoma
DLD-1 colon = tested on: DLD-1 colon
LXFL 529 NSCLC = tested on: LXFL 529 NSCLC
OVCAR-4 ovarian = tested on: OVCAR-4 ovarian
SNB-75 CNS = tested on: SNB-75 CNS
HCT-116 colon = tested on: HCT-116 colon

| SMILES | TGI (OVCAR-3 ovarian) | TGI (ACHN renal) | TGI (SF-268 CNS) | TGI (A498 renal) | TGI (SK-MEL-2 melanoma) | TGI (DLD-1 colon) | TGI (LXFL 529 NSCLC) | TGI (OVCAR-4 ovarian) | TGI (SNB-75 CNS) | TGI (HCT-116 colon) | GI50 (OVCAR-3 ovarian) | GI50 (ACHN renal) | GI50 (SF-268 CNS) | GI50 (A498 renal) | GI50 (SK-MEL-2 melanoma) | GI50 (DLD-1 colon) | GI50 (LXFL 529 NSCLC) | GI50 (OVCAR-4 ovarian) | GI50 (SNB-75 CNS) | GI50 (HCT-116 colon) |
| --- | --- | --- | --- | --- | --- | --- | --- | --- | --- | --- | --- | --- | --- | --- | --- | --- | --- | --- | --- | --- |
| Cc1cc2c(c(C(N)=O)c1C)-c1cccc(F)c1C2=O | > 100 µM | > 100 µM | > 100 µM | > 100 µM | > 100 µM | > 100 µM | > 100 µM | > 100 µM | 66.5 µM | > 100 µM |  |  |  |  |  |  |  |  |  |  |
| Cc1c(C(=O)C/C(=N/NC(=O)c2ccccc2)C(=O)Nc2ccc(Cl)cc2)[n+](=O)c2ccccc2n1[O-] | > 100 µM | > 100 µM | > 100 µM | > 100 µM | > 100 µM | > 100 µM | > 100 µM | > 100 µM | > 100 µM | > 100 µM |  |  |  |  |  |  |  |  |  |  |
| CCC[CH2][Sn]([CH2]CCC)([O]C(=O)c1cc(OC)c(OC)cc1OC)[O][Sn]([CH2]CCC)([CH2]CCC)[O]C(=O)c1cc(OC)c(OC)cc1OC | 2.07 µM | 1.17 µM | 0.972 µM | 1.76 µM | 0.824 µM | 1.34 µM | 0.214 µM | 2.96 µM | 0.7 µM | 1.82 µM | 0.798 µM | 0.339 µM | 0.27 µM | 0.508 µM | 0.173 µM | 0.253 µM | 0.0599 µM | 1.33 µM | 0.124 µM | 0.67 µM |
| C[N+]1=c2c3cccc4cccc(c(=O)n2CC1)c43 | 79.8 µM | > 100 µM | 35.1 µM | 30.9 µM | 34.8 µM | 44 µM | 42.4 µM | 43.9 µM | 45 µM | 17.3 µM |  |  |  |  |  |  |  |  |  |  |
| N#C/C(=C1\SCC(=O)N1c1ccccc1)c1nc2ccccc2[nH]1 | > 100 µM | > 100 µM | > 100 µM | > 100 µM | > 100 µM | > 100 µM | > 100 µM | > 100 µM | > 100 µM | > 100 µM |  |  |  |  |  |  |  |  |  |  |
| O=C1C2C(C(=O)N1c1ccccc1)C1c3ccccc3C2C2C(=O)N(c3ccccc3)C(=O)C21 (stereo not drawn) | > 100 µM | > 100 µM | > 100 µM | > 100 µM | 6.52 µM | 8.92 µM | > 100 µM | > 100 µM | 22.6 µM | > 100 µM |  |  |  |  |  |  |  |  |  |  |
| O=C(/C=C(\O)C(=O)O)/C=C(\O)c1ccccc1 | > 46.4 µM | > 100 µM | > 100 µM | > 100 µM | > 100 µM | > 100 µM | > 100 µM | > 100 µM | > 54.9 µM | > 100 µM | > 1 µM | > 1 µM | > 1 µM |  | > 1 µM |  | > 1 µM | > 1 µM | > 1 µM | > 1 µM |
| COc1cc2c(cc1OC)C(C(=O)O)C(c1ccccc1)N(C)C2=O (stereo not drawn) | > 100 µM | > 100 µM | > 100 µM | > 100 µM | > 100 µM | > 100 µM | > 100 µM | > 100 µM | > 100 µM | > 100 µM |  |  |  |  |  |  |  |  |  |  |
| COC(=O)CCC(NC(=S)N/N=C(\C)c1ccc[nH]1)C(=O)OC (stereo not drawn) | > 100 µM | > 100 µM | > 100 µM | > 100 µM | > 100 µM | > 100 µM | > 100 µM | > 100 µM | > 100 µM | > 100 µM |  |  |  |  |  |  |  |  |  |  |
| C=CC(=O)N1C/C(=C\c2ccc(Cl)c(Cl)c2)C(=O)/C(=C/c2ccc(Cl)c(Cl)c2)C1 | 0.219 µM | 0.343 µM | 0.298 µM | 1.89 µM | 1.43 µM | 0.154 µM | 0.345 µM | 0.122 µM | 0.676 µM | 0.188 µM |  |  |  |  |  |  |  |  |  |  |

— PubChem BioAssay (NCI)
